We go through eleven compounds from patent publication US5025036A, “Catechol carboxylic acids” (Hoffmann-La Roche Inc., priority 1989, dated 1991).

In assay [1] the test system is cardiac lipid peroxidation. The assay is described as follows: In vitro testing of antiperoxidative agents (cardiac lipid peroxidation). It counts as biochemical. The conditions noted are these: rat cardiac liposomes, 60 minutes, 37° C., pH 7.4; read-out: Inhib. of Lipid Peroxidation IC50. Here is the method:
The test system employs hypoxanthine-xanthine oxidase (XO)-Fe^3+. ADP as the free radical generator and purified, native rat-heart membrane phosphoglyceride in Hepes-KCl buffer, pH 7.4, as the substrate. Inhibition of superoxide-dependent, iron-promoted lipid peroxidation in the linear reaction phase (after 1 hour of reaction) is measured as the net formation of thiobarbituric acid (TBA)-reactive material. In this system, the TBA-reactive material, isolated by HPLC, is exclusively (>95%) malondialdehyde (MDA), a fragmentation end-product arising from fatty acyl hydroperoxides and cyclic endoperoxides.
Conscious male Sprague-Dawley rats (~275 g) maintained on a normal rodent diet were decapitated. The hearts were rapidly removed and perfused via the aorta with ice-cold 10 mM Hepes buffer, pH 7.4. The aorta and atria were removed, and the ventricular tissue was blotted and weighed (wet weight). The hearts were minced on ice with scissors and finally homogenized (100 mg tissue/ml ice-cold buffer) for 15 seconds (3×5 seconds) with a Tekmar Tissumizer at "maximal" setting. The homogenate was filtered through 4-ply cheesecloth, and homogenate lipids were extracted and purified by a modified Bligh-Dyer procedure (M. D. Marshall and M. Kates, Biochem. Biophys. Acta 260, 558 (1972). The cardiac lipids were stored in CHCl3 under nitrogen at -20° C.
Liposomes were prepared from extracted and purified, native rat heart cardiac lipid and were used as substrate for free-radical attack. Cardiac lipid (in CHCl3) was placed in a glass flask and evaporated to dryness under nitrogen at room temperature; the flask was gently rotated during evaporation to yield a thin, dry lipid film. The lipid was taken up in 10 mM Hepes-0.145M CKl, pH 7.4, and was resuspended by indirect anaerobic sonication for 15 minutes at room temperature. The liposome suspension was used immediately.
A chelate was formed in Hepes-KCl buffer between Fe^3+ (1.0 mM FeCl3, final concentration) and ADP (10 mM, final concentration) at pH 7.4 with stirring at room temperature. Chelation was allowed to proceed for 90 minutes prior to use. The chelate was prepared fresh for each days experiments to ensure iron solubility, effective chelation, and valence state.
Malondialdehyde (MDA) equivalents were measured as thiobarbituric acid (TBA)-reactive material by the following modification of published methods. The reaction mixture, prepared fresh daily, contained water:BHT ([…] BHT in absolute ethanol):TBA (1.5% TBA in 0.2M Tris, pH 7.0) in the volume ratio 1:1:5. To each 1.0 ml of peroxidation reaction assayed (see below), 0.35 ml reaction mixture was added. After thorough mixing, the tubes were incubated in an 80° C. shaking water bath for 30 minutes. After this time, the tubes were plunged into an ice water bath, and the reaction was immediately stopped with 0.5 ml ice-cold 91% TCA followed by 2.0 ml CHCl3. After centrifugation for 30 minutes at 2000 rpm in a Sorval HL-8 rotor (4° C.), the absorbance of the washed, pink upper phase was read at 532 nm. A standard curve (0.8-40.0 nmol MDA) was run with every assay. For each curve, MDA was freshly prepared by acidification of 1,1,3,3-tetraethoxypropane with 75% TCA-2.3N HCl (0.15 ml acid mixture with 1.0 ml suitably diluted tetraethoxypropane). Computer-assisted regression analysis of the standard curve was used to quantify the molar amounts of MDA equivalents in the experimental samples.
Cardiac liposomes were subjected to superoxide-dependent, iron-promoted peroxidation in glass vessels to avoid the well-known antioxidant effects of many common polymerizing agents used to fabricate plastic labware. Screening was performed in triplicate in glass 12×75 mm tubes at a final reaction volume of 1.0 ml and a reaction time of 60 minutes. […]

The nature of assay [2]: Antibiotic-Induced Colitis in Hamsters, In Vivo. Set-up: species or system male Syrian hamsters (LUG). The following applies: >1.0 = therapy prolongs survival, ** p < 0.01. The procedure: Male Syrian hamsters (LUG), weighing 80 to 120 g were each given a single dose of 175 mg/kg of clindamycin-phosphate or of clindamycin-hydrochlorideintraperitoneally, to induce colitis. Approximately seven hours after injection, the animals were given the test compound orally or intraperitoneally and the therapy was continued twice a day for a period of four more days. For oral administration, the […] was suspended in water or dissolved in dimethylsulfoxide and delivered to the animals by gavage using an oral intubating needle. The effect of the therapy was measured by use of the Hazard Ratio, which is the ratio of the mortality of the animals treated with the test inhibitor compound contained in a vehicle to the mortality of the animals treated with the vehicle containing none of the test inhibitor compound. The mortality was determined for the test inhibitor compound-treated groups and for the vehicle-treated groups, respectively, twice daily, and was evaluated by comparing the survival curves of each group. The Kaplan-Meier estimate of the survival curve was calculated for each group and the Mantel-Cox (logrank) test was used to compare the survival curve of each test inhibitor compound-treated (therapy) group to that of the corresponding vehicle control group. […] (See, J. G. Bartlett et al. Amer. J. Vet. Res. 39: 1525-1530 (1978)).

Turning to `CCCc1c(OCCCCCCc2ccc(C(C)C)c(O)c2O)ccc(C(=O)O)c1O` [4-[6-[2,3-dihydroxy-4-(1-methylethyl)phenyl]hexyloxy]-2-hydroxy-3-propylbenzoic acid], the IC50 – broadly, the midpoint of a concentration-inhibition curve – in assay [1] was 700 nM.

Take `CCCc1c(OCCCCc2cccc(O)c2O)ccc(C(C)=O)c1O` [1-[2-Hydroxy-4-[4-(2,3-dihydroxyphenyl)butoxy]-3-propylphenyl]ethanone]: the IC50 in assay [1] was above 1000 nM.

As for `CCCc1c(OCCCCCCc2cccc(O)c2O)ccc(C(=O)O)c1O` [4-[6-(2,3-Dihydroxyphenyl)hexyloxy]-2-hydroxy-3-propylbenzoic acid], the IC50 in assay [1] was determined as 300 nM. Besides, the “Hamster Colitis Model Hazard Ratio” value in assay [2] (10 mg/kg p.o) worked out at 2.26; in assay [2] (100 mg/kg p.o) it was 4.22.

Take `CCCc1c(OCCCCCCCCCCc2cccc(O)c2O)ccc(C(=O)O)c1O` [4-[10-(2,3-dihydroxyphenyl)decyloxy]-2-hydroxy-3-propylbenzoic acid]: in assay [1], the IC50 came out at 400 nM.

For the compound `CCCc1c(OCCCCCCCCc2cccc(O)c2O)ccc(C(=O)O)c1O` [4-[8-(2,3-dihydroxyphenyl)octyloxy]-2-hydroxy-3-propylbenzoic acid], the IC50 in assay [1] is 300 nM.

`O=C(O)c1ccc(OCCCCCCc2cccc(O)c2O)cc1` [4-[6-(2,3-Dihydroxyphenyl)hexyloxy]benzoic acid]: the IC50 in assay [1] was above 1000 nM.

With `O=C(O)c1ccc(OCCCCCCc2cccc(O)c2O)cc1O` [4-[6-(2,3-Dihydroxyphenyl)hexyloxy]-2-hydroxybenzoic acid], the IC50 in assay [1] was above 1000 nM.

Turning to `CCCc1c(OCCCCCCc2ccc(O)c(O)c2)ccc(C(=O)O)c1O` [4-[6-(3,4-dihydroxyphenyl)hexyloxy]-2-hydroxy-3-propylbenzoic acid], in assay [1], the IC50 was 600 nM.

Consider `CCCc1c(OCCCCc2cccc(O)c2O)ccc(C(=O)O)c1O` [4-[4-(2,3-dihydroxyphenyl)butoxy]-2-hydroxy-3-propylbenzoic acid], for which, in assay [1], the IC50 was determined as 500 nM. Further, the “Hamster Colitis Model Hazard Ratio” value is reported as 1.35 in assay [2] (10 mg/kg p.o) and 0.1 in assay [2] (100 mg/kg p.o).

Take `CCCc1c(OCCCCCCc2cccc(O)c2O)ccc(C(C)=O)c1O` [1-[2-hydroxy-4-[6-(2,3-dihydroxyphenyl)hexyloxy]-3-propylphenyl]ethanone]: in assay [1], the IC50 turned out to be 700 nM.

Regarding `CCCc1c(OCCCCCCc2ccc(C(C)C)c(O)c2O)ccc(C(C)=O)c1O` [1-[2-hydroxy-4 [6-[2,3 dihydroxy-4-(1-methylethyl)phenyl]hexyloxy]-3 propylphenyl]ethanone], the IC50 in assay [1] is 700 nM.
